Source: paper PMC9276676, “Difluoromethylornithine (DFMO) and AMXT 1501 inhibit capsule biosynthesis in pneumococci” (Scientific Reports, 2022)

What was measured:
Assay type in all cases: cell-based, Streptococcus pneumoniae
[1] = system: S. pneumoniae serotype 19F (EF3030); experiment: DFMO susceptibility and growth in THY (OD600, MIC); set-up: Growthrate: unit not given here
Description: (§1) S. pneumoniae serotypes 4 (TIGR4), 2 (D39), 19F (EF3030) and 3 (WU2) were cultured in Todd Hewitt broth supplemented with yeast extract (THY). Supplementation with DFMO ranging from 1.1 to 549 mM was carried out in triplicate in a 96-well plate and incubated at 37 °C and 5% CO2 in a Cytation™ 5 cell imaging multi-mode reader (BioTek, Winooski, VT). The change in optical density at 600 nm (OD600) was measured every hour for 24 h and used to determine the minimum inhibitory concentration (MIC) of DFMO. The optical density data was analyzed using GrowthRates 4.0 software. To determine whether DFMO at sub-MIC is bacteriostatic or lethal to pneumococcal cells, all strains were cultured in the presence or absence of 1/2 MIC DFMO. OD600 was measured every hour and CFU were enumerated on a blood agar plate (BAP) every 2 h over an 8 h incubation period.

[2] = system: S. pneumoniae serotype 2 (D39); experiment: DFMO susceptibility and growth in THY (OD600, MIC); set-up: Growthrate: unit not given here; conditions: D39
Description: as §1

[3] = system: S. pneumoniae serotype 3 (WU2); experiment: DFMO susceptibility and growth in THY (OD600, MIC); set-up: Growthrate: unit not given here
Description: as §1

[4] = system: S. pneumoniae serotype 4 (TIGR4); experiment: DFMO susceptibility and growth in THY (OD600, MIC); set-up: Growthrate: unit not given here
Description: as §1

D39 = experiment: Viability/replication at 1/2 MIC DFMO (CFU on blood agar); conditions: 1/2 MIC DFMO (137 mM)
Description: as §1

EF3030 = experiment: as above; conditions: 1/2 MIC DFMO (137 mM)
Description: as §1

TIGR4 = experiment: as above; conditions: 1/2 MIC DFMO (137 mM)
Description: as §1

SMILES: NCCC[C@](N)(C(=O)O)C(F)F [DFMO, α-difluoromethylornithine]
- difference in growth rate in presence or absence of DFMO (GrowthRates software) [1]: did not identify any significant differences
- Growthrate ([1]; DFMO 0.2 µg/µL): 0.035
- Max OD ([1]; DFMO 0.2 µg/µL): 1.413
- Growthrate ([1]; DFMO 0.4 µg/µL): 0.021
- Max OD ([1]; DFMO 0.4 µg/µL): 1.458
- Growthrate ([1]; DFMO 0.8 µg/µL): 0.037
- Max OD ([1]; DFMO 0.8 µg/µL): 1.485
- Growthrate ([1]; DFMO 1.6 µg/µL): 0.037
- Max OD ([1]; DFMO 1.6 µg/µL): 1.495
- Growthrate ([1]; DFMO 3.1 µg/µL): 0.036
- Max OD ([1]; DFMO 3.1 µg/µL): 1.517
- Growthrate ([1]; DFMO 6.3 µg/µL): 0.035
- Max OD ([1]; DFMO 6.3 µg/µL): 1.538
- Growthrate ([1]; DFMO 12.5 µg/µL): 0.030
- Max OD ([1]; DFMO 12.5 µg/µL): 1.513
- Growthrate ([1]; DFMO 25.0 µg/µL): 0.040
- Max OD ([1]; DFMO 25.0 µg/µL): 1.319
- Growthrate ([1]; DFMO 50.0 µg/µL): 0.000
- Max OD ([1]; DFMO 50.0 µg/µL): 0.000
- Growthrate ([1]; DFMO 100.0 µg/µL): 0.000
- Max OD ([1]; DFMO 100.0 µg/µL): 0.000
- difference in growth rate in presence or absence of DFMO (GrowthRates software) [2]: did not identify any significant differences
- growth curve versus control ([2]; 1/2 MIC DFMO (137 mM)): longer lag phase and a lower maximal O.D
- Growthrate ([2]; DFMO 0.2 µg/µL): 0.025
- Max OD ([2]; DFMO 0.2 µg/µL): 1.555
- Growthrate ([2]; DFMO 0.4 µg/µL): 0.019
- Max OD ([2]; DFMO 0.4 µg/µL): 1.573
- Growthrate ([2]; DFMO 0.8 µg/µL): 0.018
- Max OD ([2]; DFMO 0.8 µg/µL): 1.615
- Growthrate ([2]; DFMO 1.6 µg/µL): 0.040
- Max OD ([2]; DFMO 1.6 µg/µL): 1.648
- Growthrate ([2]; DFMO 3.1 µg/µL): 0.039
- Max OD ([2]; DFMO 3.1 µg/µL): 1.642
- Growthrate ([2]; DFMO 6.3 µg/µL): 0.037
- Max OD ([2]; DFMO 6.3 µg/µL): 1.647
- Growthrate ([2]; DFMO 12.5 µg/µL): 0.036
- Max OD ([2]; DFMO 12.5 µg/µL): 1.613
- Growthrate ([2]; DFMO 25.0 µg/µL): 0.029
- Max OD ([2]; DFMO 25.0 µg/µL): 0.985
- Growthrate ([2]; DFMO 50.0 µg/µL): 0.000
- Max OD ([2]; DFMO 50.0 µg/µL): 0.000
- Growthrate ([2]; DFMO 100.0 µg/µL): 0.000
- Max OD ([2]; DFMO 100.0 µg/µL): 0.000
- difference in growth rate in presence or absence of DFMO (GrowthRates software) [3]: did not identify any significant differences
- growth curve versus control ([3]; 1/2 MIC DFMO (137 mM)): longer lag phase and a lower maximal O.D
- Growthrate ([3]; DFMO 0.2 µg/µL): 0.046
- Max OD ([3]; DFMO 0.2 µg/µL): 0.497
- Growthrate ([3]; DFMO 0.4 µg/µL): 0.047
- Max OD ([3]; DFMO 0.4 µg/µL): 0.509
- Growthrate ([3]; DFMO 0.8 µg/µL): 0.047
- Max OD ([3]; DFMO 0.8 µg/µL): 0.548
- Growthrate ([3]; DFMO 1.6 µg/µL): 0.046
- Max OD ([3]; DFMO 1.6 µg/µL): 0.575
- Growthrate ([3]; DFMO 3.1 µg/µL): 0.050
- Max OD ([3]; DFMO 3.1 µg/µL): 0.650
- Growthrate ([3]; DFMO 6.3 µg/µL): 0.048
- Max OD ([3]; DFMO 6.3 µg/µL): 0.652
- Growthrate ([3]; DFMO 12.5 µg/µL): 0.048
- Max OD ([3]; DFMO 12.5 µg/µL): 0.696
- Growthrate ([3]; DFMO 25.0 µg/µL): 0.046
- Max OD ([3]; DFMO 25.0 µg/µL): 0.303
- Growthrate ([3]; DFMO 50.0 µg/µL): 0.000
- Growthrate ([3]; DFMO 100.0 µg/µL): 0.000
- difference in growth rate in presence or absence of DFMO (GrowthRates software) [4]: did not identify any significant differences
- Growthrate ([4]; DFMO 0.2 µg/µL): 0.055
- Max OD ([4]; DFMO 0.2 µg/µL): 1.583
- Growthrate ([4]; DFMO 0.4 µg/µL): 0.056
- Max OD ([4]; DFMO 0.4 µg/µL): 1.619
- Growthrate ([4]; DFMO 0.8 µg/µL): 0.056
- Max OD ([4]; DFMO 0.8 µg/µL): 1.657
- Growthrate ([4]; DFMO 1.6 µg/µL): 0.057
- Max OD ([4]; DFMO 1.6 µg/µL): 1.695
- Growthrate ([4]; DFMO 3.1 µg/µL): 0.056
- Max OD ([4]; DFMO 3.1 µg/µL): 1.654
- Growthrate ([4]; DFMO 6.3 µg/µL): 0.055
- Max OD ([4]; DFMO 6.3 µg/µL): 1.635
- Growthrate ([4]; DFMO 12.5 µg/µL): 0.056
- Max OD ([4]; DFMO 12.5 µg/µL): 1.560
- Growthrate ([4]; DFMO 25.0 µg/µL): 0.052
- Max OD ([4]; DFMO 25.0 µg/µL): 1.280
- Growthrate ([4]; DFMO 50.0 µg/µL): 0.000
- Max OD ([4]; DFMO 50.0 µg/µL): 0.000
- Growthrate ([4]; DFMO 100.0 µg/µL): 0.000
- Max OD ([4]; DFMO 100.0 µg/µL): 0.000
- effect on viability (viability curves) (D39): some bacteriostatic effect
- effect on viability (viability curves) (EF3030): some bacteriostatic effect
- effect on viability (viability curves) (TIGR4): some bacteriostatic effect
